Test results: patent US8617604B2, “Pharmaceutical compositions with enhanced performance” (Bend Research, Inc., priority 2005, dated 2013)
Like-named read-outs stand apart in the source and are kept apart here. One block for each compound: values may come before it.

Columns and labels:
[1] = Microcentrifuge dissolution test; assay type: physicochemical
[2] = In vitro membrane permeation test (maximum flux of drug across membrane); conditions: 100 μgA/mL; for Maximum Flux of Drug 5: Table 15, feed 0.5 wt % NaTC/POPC, permeate 60 wt % decanol in decane
Description: An Accurel® PP 1E microporous polypropylene membrane was obtained from Membrana GmbH (Wuppertal, Germany). The membrane was washed in isopropyl alcohol and rinsed in methanol in a sonicating bath for one minute at ambient temperature, and then allowed to air dry at ambient temperature. The feed side of the membrane was then plasma-treated to render it hydrophilic by placing a sample of the membrane in a plasma chamber. The atmosphere of the plasma chamber was saturated with water vapor at a pressure of 550 mtorr. A plasma was then generated using radio frequency (RF) power inductively coupled into the chamber via annular electrodes at a power setting of 50 Watts for 45 seconds. The contact angle of a drop of water placed on the surface of the plasma-treated membrane was about 40°. The contact angle of a drop of water placed on the permeate side of the same membrane was greater than about 110°.
A permeate reservoir was formed by capping the open end of a glass tube having an inside diameter of about 2 54 cm by gluing a sample of the plasma-treated membrane to the tube using an epoxy-based glue (LOCTITE® E-30CL HYSOL® from Henkel Loctite Corp, Rocky HUI, Conn.). The membrane was oriented so that its feed side was on the outside of the permeate reservoir and its permeate side was on the inside of the reservoir. The effective membrane area of the membrane capping the permeate reservoir was about 4.9 cm^2. The permeate reservoir was placed into a glass feed reservoir. The feed reservoir was equipped with a magnetic stir bar and the reservoir was placed on a stir plate and the stir rate was set to 100 rpm during the test. The apparatus was placed into a chamber maintained at 37° C. for the duration of the test.
To this was added 5 mL of an aqueous solution designed to model the fed state, consisting of a Phosphate Buffered Solution (PBS) containing 29.2 mM or 2 wt % sodium taurocholic acid and 5.6 mM of 1-palmitoyl-2-oleyl-sn-glycero-3-phosphocholine (NaTC/POPC). […] The feed solution was mixed using a vortex mixer for 1 minute. Before the membrane contacted the feed solution, 5 mL of 20 wt % decanol in decane was placed into the permeate reservoir. Time zero in the test was when the membrane was placed in contact with the feed solution. A 50 μL aliquot of the permeate solution was collected at 20, 40, 60, 90, 120, 180, 240, and 350 minutes. Samples were then diluted in 250 μL isopropyl alcohol and analyzed using HPLC.
The maximum flux of drug across the membrane (in units of μgA/cm^2-min) was determined by performing a least-squares fit to the data to obtain the maximum slope, multiplying the slope by the permeate volume (5 mL), and dividing by the membrane area (4.9 cm^2).
The maximum flux of drug across the membrane (in units of μgA/cm^2-min) was determined by estimating the tangent to the concentration versus time curve at time 0.
To this was added 5 mL of the Model Fasted Duodenum (MFD) solution consisting of Phosphate Buffered Saline (PBS) solution containing 7.3 mM sodium taurocholic acid and 1.4 mM of 1-palmitoyl-2-oleyl-sn-glycero-3-phosphocholine (0.5% NaTC/POPC). […] The feed solutions were each mixed using a vortex mixer for 1 minute. Before the membrane contacted the feed solutions, 5 mL of 20 wt % decanol in n-decane was placed into the permeate reservoir. Time zero in the test was when the membrane was placed in contact with the feed solution. […] Samples were then diluted in 250 μL isopropyl alcohol and analyzed using HPLC.

[3] = Aqueous solubility of the drugs; assay type: physicochemical; conditions: aqueous medium (not specified further)
[4] = Table 19, Drug 2, MFD solution, 1000 μgA/mL
[5] = Table 18, Drug 1, PBS pH 6.5, 37° C., 1000 μgA/mL
[6] = Table 20, Drug 1, microcentrifuge dissolution test described above

AUC90 [1, 4]: 4200 min · μgA/mL | MDC90 [1, 4]: 101 μgA/mL
Structure (SMILES): O=C(NOCC1CC1)c1ccc(F)c(F)c1Nc1ccc(I)cc1Cl [Control C2]

Maximum Drug Flux ([2]; Table 21, Drug 4, feed 0.5% NaTC/POPC (MFD), permeate 60 wt % decanol in n-decane): 0.16 μgA/cm^2-min
Structure (SMILES): O=C1Cc2cc(CCN3CCN(c4nsc5ccccc45)CC3)c(Cl)cc2N1 [Control C4]

Maximum Flux of Drug 5 [2]: 0.07 μgA/cm^2-min
Structure (SMILES): O=C1Cc2cc(CCN3CCN(c4nsc5ccccc45)CC3)c(Cl)cc2N1 [Control C6]

solubility ([3]; free base form): < 0.1 µg/mL | solubility ([3]; hydrochloride salt form): ~10 µg/mL
Structure (SMILES): O=C1Cc2cc(CCN3CCN(c4nsc5ccccc45)CC3)c(Cl)cc2N1 [Drug 4]

Maximum Flux of Drug 1 (120 μg/mL): 0.091 μgA/cm^2-min | Maximum Flux of Drug 1 (120 μgA/mL): 0.08 μgA/cm^2-min | AUC90 ([1]; Table 11, Drug 1, PBS pH 6.5, 37° C., area under the curve from 0 to 90 minutes): <88 min · μgA/mL | MDC90 ([1]; Table 11, Drug 1, PBS pH 6.5, 37° C., maximum drug concentration between 0 and 90 minutes): <1 μgA/mL | AUC90 [1, 5]: <100 min · μgA/mL | MDC90 [1, 5]: <1 μgA/mL | AUC90 [1, 6]: <100 min · μgA/mL | MDC90 [1, 6]: <1 μgA/mL
Structure (SMILES): CCOC(=O)N1c2ccc(C(F)(F)F)cc2[C@@H](N(Cc2cc(C(F)(F)F)cc(C(F)(F)F)c2)C(=O)OC)C[C@H]1CC [Control C1]

Maximum Flux of Drug 5 [2]: 0.099 μgA/cm^2-min
Structure (SMILES): O=C1Cc2cc(CCN3CCN(c4nsc5ccccc45)CC3)c(Cl)cc2N1 [Control C5]

solubility [3]: < 0.1 µg/mL
Structure (SMILES): CCOC(=O)N1c2ccc(C(F)(F)F)cc2[C@@H](N(Cc2cc(C(F)(F)F)cc(C(F)(F)F)c2)C(=O)OC)C[C@H]1CC [Drug 1, [2R,4S]-4[(3,5-bis-trifluoromethyl-benzyl)-methoxycarbonyl-amino]-2-ethyl-6-trifluoromethyl-3,4-dihydro-2H-quinoline-1-carboxylic acid ethyl ester]
